Data on five compounds can be found in US20060247184A1, “Treatment and prophylaxis of diseases and infections pigs and poultry” (Eco Animal Health Ltd., priority 2000, published 2006).

In brackets after ≈: the same amount, converted by molar mass. Like-named read-outs stand apart in the source and are kept apart here.

In assay [1] the test system is Brachyspira hyodysenteriae. Briefly: Swine dysentery, treatment of clinical outbreak. It counts as in vivo, pigs.
For assay [2], the system named is Brachyspira hyodysenteriae. Briefly: Swine dysentery animal disease model, prevention of clinical disease. It counts as in vivo, pigs.
For a further assay, the system named is Mycoplasma Synoviae. Briefly: Sensitivity (MIC) for AIVLOSIN and tetracyclines, alone and in combination. It counts as cell-based. Conditions: for MIC: Mycoplasmopsis synoviae, alone; for MIC of each for combination OTC + AIV: in combination OTC + AIV; for MIC of each for combination CTC + AIV: in combination CTC + AIV.
The subject of a further assay is Clostridium perfringens. The class given is cell-based.
Assay [3] has as its system Brachyspira hyodysenteriae. Briefly: In vitro MIC against Brachyspira hyodysenteriae strains (Table 2). It counts as cell-based.
The test system of assay [4] is Brachyspira hyodysenteriae. Briefly: Sensitivity (MIC) for AIVLOSIN and chlortetracycline, alone and in combination. It counts as cell-based. As to conditions: for MIC: Brachyspira hyodysenteriae, alone; for MIC of each for combination of CTC + AIV: in combination CTC + AIV. The source says: 4. Sensitivity of Bacteria for AIVLOSIN and Tetracyclines, Alone and in Combination.
Sensitivity is expressed as the lowest concentration of an antibiotic (in mcg/ml) that inhibits the growth of the test bacteria (MIC=Minimum Inhibitory Concentration).
Brachyspira Hyodysenteriae

On to `C=C[C@]1(C)C[C@@H](OC(=O)CSCCN(CC)CC)[C@]2(C)[C@H](C)CC[C@]3(CCC(=O)[C@H]32)[C@@H](C)[C@@H]1O` [Tiamulin, tiamulin], for which, in assay [1] (100 ppm 10 days), the “Mean days to clear B.Hyo” value stood at 5.8 days and the “Mean days to recovery” value is given as 4.4 days. In assay [1] (100 ppm 10 days, clinical scoring 0 = normal, 6 = moribund, baseline), the “Mean score at start” value is given as 4.0. For the same compound, the “Period for which the drug needs to be provided to prevent an outbreak” value in assay [2] (artificially infected pigs) is on record as “whole period in which the pigs are at risk”.

As a reminder, the MIC is the least concentration at which growth counts as inhibited. As to `CN(C)[C@@H]1C(O)=C(C(N)=O)C(=O)[C@@]2(O)C(O)=C3C(=O)c4c(O)cccc4[C@@](C)(O)[C@H]3[C@H](O)[C@@H]12` [OTC, oxytetracycline], the MIC came to 0.39 µg/mL with Mycoplasma Synoviae (strain 173); 0.2 µg/mL with Mycoplasma Synoviae (strain 185); 0.39 µg/mL in the assay on Mycoplasma Synoviae (strain 211); 0.78 µg/mL in the assay with Mycoplasma Synoviae (strain 312); 0.39 µg/mL in the assay with Mycoplasma Synoviae (strain wvu 1835). In addition, the “MIC of each for combination OTC + AIV” value in the assay with Mycoplasma Synoviae (strain 173), with Mycoplasma Synoviae (strain 185), in the assay on Mycoplasma Synoviae (strain 211), in the assay with Mycoplasma Synoviae (strain 312) and in the assay with Mycoplasma Synoviae (strain wvu 1835) was 0.1 µg/mL in each case.

For zinc bacitracin, the MIC with Clostridium perfringens (strain 378) came to 3.125 µg/mL; against Clostridium perfringens (strain 389) it was 1.56 µg/mL; with Clostridium perfringens (strain 392), 1.56 µg/mL; against Clostridium perfringens (strain 395), 3.125 µg/mL; against Clostridium perfringens (strain 410), 3.125 µg/mL; with Clostridium perfringens (strain 412), 6.25 µg/mL. For the same compound, in the assay on Clostridium perfringens (strain 413), the minimum inhibitory concentration (MIC) came out at 6.25 µg/mL.

Take `CC[C@H]1OC(=O)C[C@@H](O)[C@H](C)[C@@H](O[C@@H]2O[C@H](C)[C@@H](O[C@H]3C[C@@](C)(O)[C@@H](O)[C@H](C)O3)[C@H](N(C)C)[C@H]2O)[C@@H](CC=O)C[C@@H](C)C(=O)/C=C/C(C)=C/[C@@H]1CO[C@@H]1O[C@H](C)[C@@H](O)[C@@H](OC)[C@H]1OC` [Tylosin, tylosin]: in assay [1] (100 ppm 21 days), the “Mean days to clear B.Hyo” value is 3.0 days, the “Mean days to recovery” value is 2.1 days and the “Mean score at start” value worked out at 3.7. The same compound displayed a minimal inhibitory concentration (MIC) in assay [3] (strain AF 6/80) of 6.25 µg/mL (≈ 6.82 µM). In assay [3] (strain PI8A), the minimal inhibitory concentration (MIC) is more than 200 µg/mL. This compound yielded a minimum inhibitory concentration (MIC) in assay [3] (strain PO268-07.98) of more than 200 µg/mL. Moreover, the “Period for which the drug needs to be provided to prevent an outbreak” value in assay [2] (pig, in vivo) is listed as not below 21 days.

As for `CN(C)[C@@H]1C(O)=C(C(N)=O)C(=O)[C@@]2(O)C(O)=C3C(=O)c4c(O)ccc(Cl)c4[C@@](C)(O)[C@H]3C[C@@H]12` [CTC, chlortetracycline], the MIC amounted to 0.78 µg/mL in the assay on Mycoplasma Synoviae (strain 173); 0.78 µg/mL in the assay on Mycoplasma Synoviae (strain 185); 0.39 µg/mL in the assay with Mycoplasma Synoviae (strain 211); 3.12 µg/mL in the assay on Mycoplasma Synoviae (strain 312); 0.39 µg/mL with Mycoplasma Synoviae (strain wvu 1835); 0.5 µg/mL in assay [4] (strain AF6). Also, the minimum inhibitory concentration (MIC) in assay [4] (strain P265-9-97), in assay [4] (strain P268-9-97) and in assay [4] (strain P578-6-97) was 16 µg/mL in each case. Further, the “MIC of each for combination CTC + AIV” value with Mycoplasma Synoviae (strain 173), in the assay with Mycoplasma Synoviae (strain 185), in the assay on Mycoplasma Synoviae (strain 211), in the assay with Mycoplasma Synoviae (strain 312) and in the assay with Mycoplasma Synoviae (strain wvu 1835) was 0.1 µg/mL each time. Besides, the “MIC of each for combination of CTC + AIV” value in assay [4] (strain AF6) came out at 0.125 µg/mL; in assay [4] (strain P265-9-97) it was 4.0 µg/mL; in assay [4] (strain P268-9-97), 8.0 µg/mL; in assay [4] (strain P578-6-97), 8.0 µg/mL.
